Experimental data reported in patent publication US20250270206A1, “COMPOSITIONS AND METHODS FOR INHIBITION OF RAS” (TheRas, Inc., priority 2022, published 2025).
pIC50: −log10 of the molar value.

Assays:
[1] = molecular target: T1, GppNHp-loaded KRAS4b (amino acids 1-169) G12C/C118S (Homo sapiens, UniProt P01116, C118S/G12C); assay: MALDI-TOF MS covalent Cys12 modification, GppNHp-loaded KRAS G12C; type: binding; settings: 15 minutes reaction time, 1 μM protein, 1:2.5 protein to compound ratio
T1 construct: KRAS4b (amino acids 1-169) G12C/C118S protein; made in house
Experimental: (§1) MALDI-TOF MS analysis was performed using 1 μM protein target, and 1:2.5 protein to compound ratio was used.
(§2) Reaction: 1 μM of GppNHp, GTP, or GDP-loaded KRAS4b (amino acids 1-169) G12C/C118S protein (produced in-house by Protein Expression Laboratory, FNLCR/Leidos Biomed) in 20 mM 4-(2-hydroxyethyl)-1-piperazineethanesulfonic acid (HEPES) buffer containing 150 mM NaCl, 1 mM MgCl2, pH 7.3 was prepared freshly before assay. Ten-μL aliquots of protein were dispensed onto low volume 384-well plate, then 375 nL DMSO, and 25 nL of tested compounds from 5 mM DMSO stocks were added to appropriate wells using ECHO 555 acoustic liquid handler (Labcyte Inc.). For each reaction/assay, three blanks were prepared by mixing 10 μL of protein solution with 400 nL DMSO. The contents of the wells were carefully mixed by aspiration, and then each plate was sealed with an adhesive cover, centrifuged at 2000 g for 1 minute, and kept in the dark at room temperature until 5 min, 15 min, 30 min, 2 h, or 6 h collections.
(§3) Target pretreatment: Before each assay MALDI target (Bruker MPT 384 ground steel BC) was pre-treated by pipetting on each spot 0.75 μL of saturated sinapinic acid in acetonitrile (ACN).
(§4) Sample preparation: At collection time point, 2 μL of reaction mixtures were pipetted out into 20 μL MALDI matrix solution (saturated solution of sinapinic acid in 1:1 ACN:water solution containing 0.75% trifluoroacetic acid (TFA)) deposited on 384 well polypropylene plate. Resulting solution was mixed by aspiration, centrifuged at 2000 g for 1 minute, then 1 μL aliquots were dispensed on pre-treated MALDI target using Beckman Coulter Biomek FX^P 96/384-Span-8 Laboratory Automation Workstation. Finally, the MALDI target was dried under mild vacuum to produce spots with fine crystalline structure.
(§5) Measurements: MALDI-TOF measurements were performed on a Bruker Daltonics rapifleX Tissuetyper TOF-TOF mass spectrometer using linear mode and mass range from 18.6 to 21.6 kDa. Detector gain was set to 3.3× (483 V), sample rate to 5 GS/s, real time smoothing to medium (175 MHz), laser smart beam pattern was set to: “MS Thin Layer M5”, and the laser frequency was 10000 Hz. Spectra were automatically collected using custom AutoXecute method. Laser power was auto adjusted using fuzzy control. The peak selection range was set to be between 19000 and 21500 Da. Peak evaluation uses half width parameter set to be smaller than 40 Da for processed spectrograms (centroid peak detection: smoothed by SavitzkyGolay algorithm using 7 m/z width and 2 cycles; baseline was subtracted using median algorithm with flatness 1 and median level 0.01). Fuzzy control used Proteins/Oligonucleotides protocol with minimum half width 1/10 times above threshold. Up to 40000 satisfactory shots were collected in 10000 shot steps. Dynamic termination was implemented to finish data collection when peak signal/noise ratio reached a value of 50.
(§6) Spectra processing: Spectra were smoothed by SavitzkyGolay algorithm using 7 m/z width and three cycles. Centroid peak detection algorithm was used with signal to noise threshold set to 6, relative intensity threshold 4%, peak width 10 m/z and median baseline subtraction using flatness of 1 and median level of 0.01. Peak intensity and area under the peak were evaluated and recorded for all peaks between 19,300 Da and 21,550 Da.
(§7) Calculation of percent modification: Percent modification was calculated as a ratio of peak height for protein modified by compound to sum of peak height of remaining protein plus peak height for protein modified by compound. If multiple modifications were observed each was calculated as a ratio of peak height for given modification versus sum of peak heights for all observed protein species. Data reported in Table 5 are from the 15 minutes reaction time point.

pERK in NCI-H358 cells = assay: Cell-based pERK HTRF assay; settings: Homo sapiens, 0.5 h, 30 min incubation
Experimental: pERK HTRF assays (Perkin Elmer) were used to determine the effectiveness of compounds of the present disclosure in disrupting KRAS G12C protein/effector signaling in cells.
On Day 1, cells (NCI-H358) were seeded into 96-well plates at 4×10^4 cells/well in complete growth media (RPMI, 10% FBS).
On Day 2, cells were treated with compounds at 0.25% DMSO. The source plate was created with compounds diluted in media at 5-fold the final assay concentration. The compounds were run in a 9-point concentration curve starting at 75 μM, with a 3-fold dilution between concentrations. 20 μL was transferred onto the cell plates (final volume in wells was 100 μL). Plates were harvested after 30 min incubation by aspirating media and adding kit-supplied 1× supplemented lysis buffer to all wells (75 μL per well). Plates were then placed on a plate shaker and incubated at 850 rpm for an additional 30 min.
Antibody mixture solution was prepared by diluting aliquoted d2 and Eu Cryptate antibodies 1:20 in kit supplied detection buffer, then mixed the diluted antibodies solutions (1:1 v:v). 4 μL of this solution was then added to a 384-well detection plate (Perkin Elmer; 6008230).
Samples were homogenized by pipetting up and down and then transferred (16 μL of cell lysates) from the 96-well cell culture plate to two wells of the HTRF 384-well detection plate containing the antibody solution. Plates were centrifuged (524 g for 1 min) and allowed to incubate between 4 and 24 h at room temperature. Maximum signal is reached after 4 h incubation time and remains stable over a period of 24 hours. Therefore, readings can be made between 4 and 24 h of incubation. Plates were centrifuged again (524 g for 1 min) and analyzed on the EnVision plate reader using the following settings: Excitation 320 nm, Bandwidth 75 nm; Emission 615 nm, Bandwidth 85 nm; Gain 100%; Flashes 100; Lag 60 μs.

[2] = molecular target: T2, GDP-loaded KRAS4b (amino acids 1-169) G12C/C118S (Homo sapiens, UniProt P01116, C118S/G12C); assay: MALDI-TOF MS covalent Cys12 modification, GDP-loaded KRAS G12C; type: binding; settings: 15 minutes reaction time, 1 μM protein, 1:2.5 protein to compound ratio
T2 construct: KRAS4b (amino acids 1-169) G12C/C118S protein; made in house
Experimental: as §1, §2, §3, §4, §5, §6, §7

[3] = molecular target: T3, Avi-KRAS G12C (1-169) GppNHp/RAF1 RBD-3×FLAG (52-151) (Homo sapiens, UniProt P01116, G12C); assay: KRAS G12C-effector (RAF1 RBD) protein:protein interaction HTRF disruption assay; type: biochemical; settings: PPI HTRF
T3 construct: Avi-KRAS G12C (1-169) GppNHp
Experimental: A protein:protein interaction (PPI) Homogeneous Time Resolved Fluorescence (HTRF) assay was used to determine the effectiveness of compounds of the present disclosure in disrupting KRAS G12C protein and effector (RAF1) binding.
The HTRF assay used the following reagents and proteins: 50 nM Avi-KRAS G12C (1-169) GppNHp/RAF1 RBD-3×FLAG (52-151); 75 nM Avi-RAF1 RBD-3×FLAG; Assay Buffer: 50 mM Tris pH 7.5, 100 mM NaCl, 5 mM MgCl2, 0.1% BSA, 0.01% Tween 20, 10% DMSO; Bead Buffer: 50 mM Tris pH 7.5, 0.01% Tween 20; Assay volume: 20 μL (384 well plate-low volume format); and Compound titration: 30-0.02 μM, 3× dilution series.
The HTRF assay employed the following protocol:
Compounds were dispensed in assay plate (384-well, Grenier Bione #784075) using Echo (model 555) with dose response settings: 200 nL final volume, titration from 100 μM as a 10-point dilution series. KRAS proteins were prepared in assay buffer, and dispensed on plates, 5 μL per well, then incubated for 1 h at room temperature, with 700 rpm shaking. RAF1 RBD were prepared in assay buffer, dispensed onto plates, 5 μL per well, and then incubated for 1 h at room temperature, with 700 rpm shaking. Reagent mix was then prepared and dispensed on plates, 10 μL per well, and then incubated for 1 h at room temperature, with 700 rpm shaking.
Plates were analyzed on an Envision plate reader using the following setting: Excitation 320 nm, Bandwidth 75 nm, Emission 615 nm, Bandwidth 85 nm; Gain 100%; Flashes 100; Lag 60 μs. Data was reported as percentage of activity, with DMSO as 100%. Data was plotted and analyzed using Prism 8.

[4] = molecular target: T4, GTP-loaded KRAS4b (amino acids 1-169) G12C/C118S (Homo sapiens, UniProt P01116, C118S/G12C); assay: MALDI-TOF MS covalent Cys12 modification, GTP-loaded KRAS G12C; type: binding; settings: 15 minutes reaction time, 1 μM protein, 1:2.5 protein to compound ratio
T4 construct: KRAS4b (amino acids 1-169) G12C/C118S protein; made in house
Experimental: as §1, §2, §3, §4, §5, §6, §7

Row | GppNHp-KRAS G12C percent of modification [1] | pIC50 (pERK in NCI-H358 cells) | GDP-KRAS G12C percent of modification [2] | pIC50 [3] | GTP-KRAS G12C percent of modification [4] | Structure (SMILES)
1 | A (percent of modification ≥70%) | < 6.00 | A (percent of modification ≥70%) | ≥ 6.30 |  | C=CC(=O)N1CC[C@@H](N(C)c2nc(OC[C@@]34CCCN3C[C@H](F)C4)nc3c(F)c(-c4ccc(F)c5sc(N)nc45)ncc23)C1 [Compound 4]
2 | A (percent of modification ≥70%) | 6.00 to 7.00 | A (percent of modification ≥70%) |  | A (percent of modification ≥70%) | C=CC(=O)N1CCC(N(C)c2nc(OC[C@@H]3CC4(CC4)CN3C)nc3c(F)c(-c4ccc(F)c5sc(N)c(C#N)c45)ncc23)[C@H]1COC (some centres unmarked) [Compound 21]
3 |  |  |  | ≥ 6.30 |  | C=CC(=O)N1CC[C@@H](N(C)c2nc(OC[C@@H]3CC4(CC4)CN3C)nc3c(F)c(-c4ccc(F)c5sc(N)c(C#N)c45)ncc23)[C@H]1COC [Compound 21]
4 | A (percent of modification ≥70%) | 6.00 to 7.00 | A (percent of modification ≥70%) |  | A (percent of modification ≥70%) | C=CC(=O)N1CCC(N(C)c2nc(OC[C@@H]3CCCN3C)nc3c(F)c(-c4ccc(F)c5sc(N)c(C#N)c45)ncc23)[C@H]1C (some centres unmarked) [Compound 22]
5 |  |  |  | ≥ 6.30 |  | C=CC(=O)N1CC[C@@H](N(C)c2nc(OC[C@@H]3CCCN3C)nc3c(F)c(-c4ccc(F)c5sc(N)c(C#N)c45)ncc23)[C@H]1C [Compound 22]
6 | A (percent of modification ≥70%) | 6.00 to 7.00 | A (percent of modification ≥70%) |  | A (percent of modification ≥70%) | C=CC(=O)N1CCC(N(C)c2nc(OC[C@@H]3CC4(CC4)CN3C)nc3c(F)c(-c4ccc(F)c5sc(N)c(C#N)c45)ncc23)[C@H]1C (some centres unmarked) [Compound 24]
7 |  |  |  | ≥ 6.30 |  | C=CC(=O)N1CC[C@@H](N(C)c2nc(OC[C@@H]3CC4(CC4)CN3C)nc3c(F)c(-c4ccc(F)c5sc(N)c(C#N)c45)ncc23)[C@H]1C [Compound 24]
8 | A (percent of modification ≥70%) | 6.00 to 7.00 | A (percent of modification ≥70%) |  | A (percent of modification ≥70%) | C=CC(=O)N1CCC(N(C)c2nc(OC[C@@H]3CCCN3C)nc3c(F)c(-c4ccc(F)c5sc(N)c(C#N)c45)ncc23)[C@H]1COC (some centres unmarked) [Compound 26]
9 |  |  |  | ≥ 6.30 |  | C=CC(=O)N1CC[C@@H](N(C)c2nc(OC[C@@H]3CCCN3C)nc3c(F)c(-c4ccc(F)c5sc(N)c(C#N)c45)ncc23)[C@H]1COC [Compound 26]
10 | D (percent of modification <10%) | < 6.00 | C (10%≤percent of modification <50%) |  | D (percent of modification <10%) | C=CC(=O)N1CCC(N(C)c2nc(OCCOC)nc3c(F)c(-c4ccc(F)c5sc(N)c(C#N)c45)ncc23)[C@H]1C (some centres unmarked) [Compound 31]
11 |  |  |  | 5.30 to 6.30 |  | C=CC(=O)N1CC[C@@H](N(C)c2nc(OCCOC)nc3c(F)c(-c4ccc(F)c5sc(N)c(C#N)c45)ncc23)[C@H]1C [Compound 31]
12 | D (percent of modification <10%) | < 6.00 | C (10%≤percent of modification <50%) |  | D (percent of modification <10%) | C=CC(=O)N1CCC(N(C)c2nc(OC)nc3c(F)c(-c4ccc(F)c5sc(N)c(C#N)c45)ncc23)[C@H]1C (some centres unmarked) [Compound 32]
13 |  |  |  | 4.70 to 5.30 |  | C=CC(=O)N1CC[C@@H](N(C)c2nc(OC)nc3c(F)c(-c4ccc(F)c5sc(N)c(C#N)c45)ncc23)[C@H]1C [Compound 32]
14 | D (percent of modification <10%) | < 6.00 | C (10%≤percent of modification <50%) |  | D (percent of modification <10%) | C=CC(=O)N1CCC(N(C)c2nc(OCCO)nc3c(F)c(-c4ccc(F)c5sc(N)c(C#N)c45)ncc23)[C@H]1C (some centres unmarked) [Compound 35]
15 |  |  |  | 4.70 to 5.30 |  | C=CC(=O)N1CC[C@@H](N(C)c2nc(OCCO)nc3c(F)c(-c4ccc(F)c5sc(N)c(C#N)c45)ncc23)[C@H]1C [Compound 35]
16 | D (percent of modification <10%) | < 6.00 | C (10%≤percent of modification <50%) |  | D (percent of modification <10%) | C=CC(=O)N1CCC(N(C)c2ncnc3c(F)c(-c4ccc(F)c5sc(N)c(C#N)c45)ncc23)[C@H]1C (some centres unmarked) [Compound 36]
17 |  |  |  | 4.70 to 5.30 |  | C=CC(=O)N1CC[C@@H](N(C)c2ncnc3c(F)c(-c4ccc(F)c5sc(N)c(C#N)c45)ncc23)[C@H]1C [Compound 36]
